In patent publication US20070207975A1, “Materials and methods for treating and preventing Her-2/neu overexpressing, FAS-elevated cancer cells” (EVANSTON NORTHWESTERN HEALTHCARE, priority 2006, published 2007):

Tests used:
Assay type in all cases: cell-based, human
SK-Br3 cells = assay: TUNEL apoptosis assay, SK-Br3; settings: GLA 10 μg/mL, trastuzumab 10 μg/mL, alone or together, 48 hours
Description: FIG. 6. […] After 72 hours, a TUNEL analysis was performed using the DeadEnd® Fluorometric TUNEL System (Promega Inc.) according to the manufacturer's protocol. The immunofluorescence photomicrographs of cells undergoing apoptosis (green staining) and the corresponding DAPI-counterstained photomicrographs are shown. […] Equal amounts of total protein (50 μg per lane) were subjected to Western blot analyses with a specific antibody against the p85 fragment of PARP, and then re-probed with a β-actin antibody. […] For each pair of columns, the height of the columns on the left represents the sum of the effect of each agent alone and, therefore, the expected apoptotic cell death if their effect was additive when used in combination. […] A) Cell surface expression of Her-2/neu protein in BT-474 and SK-Br3 cells was determined by flow cytometry using a mouse anti-Her-2/neu antibody directed against the extracellular domain of the p185^Her-2/neu oncoprotein (clone Ab-5; Oncogene Research Products; San Diego, Calif.). […] The mean fluorescence signal associated with cells for labeled p185^Her-2/neu was quantified using the Geo Mean (GM) fluorescence parameter provided with the software. […] Immunoreactive bands were detected by enhanced chemiluminescence reagent (Pierce, Rockford, Ill.). […] Densitometric values of protein bands were quantified using Scion Imaging Software (Scion Corp., Frederick, Md.).

p185^Her-2/neu = assay: In situ immunofluorescent staining of p185Her-2/neu; settings: BT-474; 48 hours
Text: FIG. 2. Exogenous supplementation with OA synergistically enhances trastuzumab-induced down-regulation of p185^Her-2/neu. […] The amount of cell surface-associated p185^Her-2/neu was quantified by flow cytometric analyses using a specific antibody against the extracellular domain of p185^Her-2/neu (Ab-5), as described herein. The mean fluorescence signal±SD (n=3) was quantified using the geo mean fluorescence (GM) parameter provided with the Cell Quest Software (Becton Dickinson). […] After labeling, cells were washed thoroughly, and localization of p185^Her-2/neu was detected by indirect immunofluorescence by incubating with FITC-conjugated anti-mouse IgG. After counterstaining with DAPI, cells were examined and photographed using a Zeiss fluorescent microscope equipped with a built-in camera. […] Similar results were obtained in three independent experiments. […] Similar results were obtained in three independent experiments. Cells were seeded at a density of 1×10^4 cells/well in a four-well chamber slide (Nalge Nunc International, Rochester, N.Y.). […] Indirect immunofluorescence was recorded on a Zeiss microscope. […] Thereafter, p185^Her-2/neu cellular localization was assessed using the anti-erbB2, Ab-3 mouse monoclonal antibody (Oncogene Research Products), which is directed against the C-terminal 14 amino acids of p185^Her-2/neu. […]

p27^Kip1 = assay: Western blot of p27Kip1 expression; settings: BT-474; 72 hours; OA, trastuzumab or combination
Text: Densitometric values of protein bands were quantified using Scion Imaging Software (Scion Corp., Frederick, Md.).

Row | Structure (SMILES) | cells that underwent apoptosis (TUNEL) (SK-Br3 cells) | p185^Her-2/neu-associated membrane (cell surface) staining (p185^Her-2/neu) | expression of p27^Kip1 (p27^Kip1)
1 | CCCCCC=CCC=CCC=CCCCCC(=O)O [GLA, 6,9,12-octadecatrienoic acid] | 3% (95% CI=2 to 4%) |  | 
2 | CCCCCCCCC=CCCCCCCCC(=O)O [OA, 9-octadecenoic acid] |  | markedly reduced | slight increase
